Here are results for 20 compounds from PMC12320831, “Synthesis and Biological Evaluation of New Chalcogen Semicarbazone (S, Se) and Their Azole Derivatives against Chagas Disease” (Journal of Medicinal Chemistry, 2024).

One data set concerns T. cruzi CAI/72 strain. The data set can be described thus: Antiparasitic activity in C2C12 cells infected with T. cruzi CAI/72 (image-based assay). The settings on record: Trypanosoma cruzi; for EC50: mean of three experiments in triplicate (n = 9) ± SD. The class given is cell-based. On the procedure: Antiparasitic activity and cytotoxicity of compounds were determined as described before (da Silva et al., Boudreau et al.). Mouse myoblasts cell line C2C12 (ATCCCRL-1772), were maintained in high glucose (4.5 g/L glucose) Dulbecco’s modified Eagle’s medium (DMEM Gibco), supplemented with 1% penicillin–streptomycin 10,000 U/mL (Gibco) and 5% fetal bovine serum (FBS, Sigma-Aldrich) at 37 °C with 5% CO2. parasites (CAI/72 strain, DTU TcI) were maintained by weekly coinfection with C2C12 cells. For all activity assays, C2C12 cells were infected at a 10:1 parasite-to-cell ratio with culture-derived trypomastigotes, which were harvested from the supernatant of infected C2C12 cells. After adding compounds to 384-well black clear-bottom plates (Greiner cat. no. 781091), trypomastigotes (7000 parasites/well) and C2C12 cells (700 cells/well) were seeded in a total volume of 50 μL of DMEM per well in the 384-well plates. Compounds were first tested at 10 μM. […] Plates were imaged with the automated ImageXpress MicroXL microscope (Molecular Devices) and analyzed by MetaXpress software (Molecular Devices) using a custom module optimized for this assay. Infection levels (parasites per host cell) were normalized to the positive control (40 μM BNZ) and negative control (DMSO). Antiparasitic activity (EC50) ± standard deviation (SD) and host cell cytotoxicity (C2C12 viability) values were determined from the DRC using Prism software (GraphPad Software, La Jolla, CA). Every assay has three biological replicates, each in triplicates (n = 9 data points).

Data set [1] is described as follows: Host cell cytotoxicity (C2C12 viability). The settings on record: mouse; for viability at 48 h, 10 µM: < 50% viability considered cytotoxic; for CC50 at 48 h: viability calculated at 10 μM. It is filed as cell-based, Mouse. Here is the method:
Antiparasitic activity and cytotoxicity of compounds were determined as described before (da Silva et al., Boudreau et al.). Mouse myoblasts cell line C2C12 (ATCCCRL-1772), were maintained in high glucose (4.5 g/L glucose) Dulbecco’s modified Eagle’s medium (DMEM Gibco), supplemented with 1% penicillin–streptomycin 10,000 U/mL (Gibco) and 5% fetal bovine serum (FBS, Sigma-Aldrich) at 37 °C with 5% CO2. parasites (CAI/72 strain, DTU TcI) were maintained by weekly coinfection with C2C12 cells. For all activity assays, C2C12 cells were infected at a 10:1 parasite-to-cell ratio with culture-derived trypomastigotes, which were harvested from the supernatant of infected C2C12 cells. After adding compounds to 384-well black clear-bottom plates (Greiner cat. no. 781091), trypomastigotes (7000 parasites/well) and C2C12 cells (700 cells/well) were seeded in a total volume of 50 μL of DMEM per well in the 384-well plates. Compounds were first tested at 10 μM. […] After 48 h at 37 °C and 5% CO2, plates were fixed with 4% formaldehyde solution for at least 1 h, washed with 1× PBS, and stained with 5 μg/mL of 4′,6-diamidino-2-phenylindole (DAPI) for at least 1 h prior to reading. Plates were imaged with the automated ImageXpress MicroXL microscope (Molecular Devices) and analyzed by MetaXpress software (Molecular Devices) using a custom module optimized for this assay. Infection levels (parasites per host cell) were normalized to the positive control (40 μM BNZ) and negative control (DMSO). Antiparasitic activity (EC50) ± standard deviation (SD) and host cell cytotoxicity (C2C12 viability) values were determined from the DRC using Prism software (GraphPad Software, La Jolla, CA). Every assay has three biological replicates, each in triplicates (n = 9 data points).

The target in the next data set is T1, recombinant Cz (cruzain) (Trypanosoma cruzi, UniProt P25779).
T1 construct: Cz was expressed and purified as described in da Silva et al; made in house
T1 sequence (P25779 123-337 limits assumed): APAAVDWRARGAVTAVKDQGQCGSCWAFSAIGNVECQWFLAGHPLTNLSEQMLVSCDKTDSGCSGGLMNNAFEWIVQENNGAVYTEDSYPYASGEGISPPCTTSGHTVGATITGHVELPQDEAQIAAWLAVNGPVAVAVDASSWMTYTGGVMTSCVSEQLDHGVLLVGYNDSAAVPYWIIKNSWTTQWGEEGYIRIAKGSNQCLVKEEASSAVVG
Description: biochemical. The settings on record: read-out: Cz inhibition (%), 10 µM. Here is the method:
The screening assay was performed using 1 nM of Cz diluted in 0.1 M sodium acetate pH 5.5, 1 mM dithiothreitol (DTT), and 0.01% Triton X-100. Cz was expressed and purified as described in da Silva et al. The reaction starts after 10 min incubating the enzyme with the compounds (10 μM), when adding 2.5 μM of the substrate Z-FR-AMC final concentration (Z-Phe-Arg-amidomethylcoumarin, Sigma-Aldrich, C9521) diluted in the same assay buffer (final volume of 30 μL). The experiment was performed for 10 min. […] The DRC was performed with at least nine different concentrations of the inhibitors, diluted by 2-fold serial dilution, ranging from […] to 10 μM.
All experiments were accomplished in a 384-well black microplate, using a Synergy HTX (Biotek) plate reader at 25 °C with absorption/emission wavelengths of 360/460 nm. All assays were performed in triplicate wells and DMSO was used as a vehicle control. Enzymatic activity was measured and normalized to DMSO controls, and the inhibitor E-64 (10 μM) was used as a positive control for all assays. All experiments were performed in triplicates, with at least two independent assays (n = 6 data points). IC50 values were determined through nonlinear regression. Obtained data were treated and analyzed using GraphPad Prism 9.0 (GraphPad Software, La Jolla, California).

[2] abbreviates: 10 µM, C2C12 infected cells, read-out: Anti-Tc CAI/72 activity (%).
[3] abbreviates: C2C12 myoblast cells infected with trypomastigotes.
[4] abbreviates: C2C12, read-out: Anti-Tc CAI/72 activity (%).

Counter-ions that a name gives are not always drawn. Like-named read-outs stand apart in the source and are kept apart here.

Take `COc1ccc(/C(C)=N/NC(N)=S)cc1` [Compound S1b, (E)-2-(1-(4-Methoxyphenyl)ethylidene)hydrazine-1-carbothioamide]: the results for the inhibition at 10 µM in the data set on T. cruzi CAI/72 strain (setting [2]) and at recombinant Cz (cruzain) were 23.2% and 87.1%, respectively. Moreover, in data set [1] (setting [3]), the viability (in general, a read-out of living cells in per cent, often relative to untreated cells) at 48 h, 10 µM was greater than 100%.
Turning to `C/C(=N\Nc1nc(C)c[se]1)c1ccsc1` [Se2l, (E)-4-Methyl-2-(2-(1-(thiophen-3-yl)ethylidene)hydrazineyl)-1,3-selenazole Hydrochloride], in the data set with T. cruzi CAI/72 strain (C2C12, 48 h, read-out: EC50 Tc CAI/72, intracellular amastigotes in C2C12 cells, 48 h), the EC50 was found to be 3.73 µM. Moreover, the inhibition at 10 µM with T. cruzi CAI/72 strain (setting [4]) stood at 50.4%. In data set [1], the viability at 48 h, 10 µM was greater than 100% and the CC50 (commonly the concentration that lowers cell viability or growth by half) at 48 h was greater than 10 µM.
`C/C(=N\Nc1nc(C)cs1)c1ccc(F)c(F)c1` [Compound S2j, (E)-2-(2-(1-(3,4-Difluorophenyl)ethylidene)hydrazineyl)-4-methylthiazole Hydrochloride]: the inhibition at 10 µM with T. cruzi CAI/72 strain (setting [2]) amounted to 28.3%; at recombinant Cz (cruzain), 79.4%. The same compound came in with a viability at 48 h, 10 µM in data set [1] (setting [3]) greater than 100%.
`C/C(=N\Nc1nc(C)cs1)c1ccc(C)cc1` [Compound S2a, (E)-4-Methyl-2-(2-(1-(4-tolyl)ethylidene)hydrazineyl)thiazole Hydrochloride]: the inhibition at 10 µM with T. cruzi CAI/72 strain (setting [2]) turned out to be 12.5%; at recombinant Cz (cruzain), 36.8%. In data set [1] (setting [3]), the viability at 48 h, 10 µM is greater than 100%.
For the compound `C/C(=N\NC(N)=S)c1ccc(Br)cc1` [Compound S1f, (E)-2-(1-(4-Bromophenyl)ethylidene)hydrazine-1-carbothioamide], the inhibition at 10 µM came out at 45.4% in the data set with T. cruzi CAI/72 strain (setting [2]) and 97.1% on recombinant Cz (cruzain). The compound further returned a viability at 48 h, 10 µM in data set [1] (setting [3]) greater than 100%.
Regarding `COc1cccc(/C(C)=N/NC(N)=[Se])c1` [Se1g, (E)-2-(1-(3-Methoxyphenyl)ethylidene)hydrazine-1-carboselenoamide], the inhibition at 10 µM with T. cruzi CAI/72 strain (setting [4]) was 7.03%; at recombinant Cz (cruzain), 101%. Besides, in data set [1], the viability at 48 h, 10 µM came to 31.1%.
Regarding `C/C(=N\NC(N)=[Se])c1ccc(C)cc1` [Se1a, (E)-2-(1-(4-Tolyl)ethylidene)hydrazine-1-carboselenoamide], the inhibition at 10 µM with T. cruzi CAI/72 strain (setting [2]) was 21.6%; on recombinant Cz (cruzain), 98.2%. Further, the viability at 48 h, 10 µM in data set [1] came out at 34.1%.
`C/C(=N\Nc1nc(C)cs1)c1ccc(C#N)cc1` [Compound S2e, (E)-4-(1-(2-(4-Methylthiazol-2-yl)hydrazineylidene)ethyl)benzonitrile Hydrochloride]: the results for the inhibition at 10 µM in the data set on T. cruzi CAI/72 strain (setting [2]) and at recombinant Cz (cruzain) were 22.4% and 89.8%, respectively. In data set [1] (setting [3]), this compound displayed a viability at 48 h, 10 µM greater than 100%.
As for `C/C(=N\NC(N)=S)c1ccc(C(F)(F)F)cc1` [Compound S1d, (E)-2-(1-(4-(Trifluoromethyl)phenyl)ethylidene)hydrazine-1-carbothioamide], the inhibition at 10 µM turned out to be 43.8% in the data set on T. cruzi CAI/72 strain (setting [2]) and 85.8% at recombinant Cz (cruzain). The viability at 48 h, 10 µM in data set [1] (setting [3]) is 93.1%.
On to `C/C(=N\Nc1nc(C)c[se]1)c1cc2ccccc2o1` [Se2p, (E)-2-(2-(1-(Benzofuran-2-yl)ethylidene)hydrazineyl)-4-methyl-1,3-selenazole Hydrochloride], for which the inhibition at 10 µM with T. cruzi CAI/72 strain (setting [4]) turned out to be 26.6%; on recombinant Cz (cruzain), 98.5%. In addition, the viability at 48 h, 10 µM in data set [1] is greater than 100%.
Regarding `C/C(=N\NC(N)=[Se])c1csc2ccccc12` [Se1o, (E)-2-(1-(Benzo[b]thiophen-3-yl)ethylidene)hydrazine-1-carboselenoamide], the inhibition at 10 µM in the data set on T. cruzi CAI/72 strain (setting [4]) stood at 4.32%; at recombinant Cz (cruzain), 93.7%. For the same compound, in data set [1], the viability at 48 h, 10 µM was 31.4%.
Regarding `C/C(=N\NC(N)=S)c1ccc(C)cc1` [Compound S1a, (E)-2-(1-(4-Tolyl)ethylidene)hydrazine-1-carbothioamide], the inhibition at 10 µM was found to be 42.3% in the data set with T. cruzi CAI/72 strain (setting [2]) and 74.8% at recombinant Cz (cruzain). In data set [1], this compound showed a viability at 48 h, 10 µM greater than 100%.
For the compound `C/C(=N\Nc1nc(C)cs1)c1ccsc1` [Compound S2l, (E)-4-Methyl-2-(2-(1-(thiophen-3-yl)ethylidene)hydrazineyl)thiazole Hydrochloride], the values for the inhibition at 10 µM in the data set on T. cruzi CAI/72 strain (setting [2]) and on recombinant Cz (cruzain) were 19.5% and 31.6%, respectively. The compound also returned a viability at 48 h, 10 µM in data set [1] (setting [3]) greater than 100%.
On to `C/C(=N\Nc1nc(C)c[se]1)C12CC3CC(CC(C3)C1)C2` [Se2q, 2-(2-((E)-1-((3s)-Adamantan-1-yl)ethylidene)hydrazineyl)-4-methyl-1,3-selenazole], for which, in the data set with T. cruzi CAI/72 strain (setting [4]), the inhibition at 10 µM is 40.6%. Besides, in data set [1], the viability at 48 h, 10 µM was greater than 100%.
The compound `C/C(=N\Nc1nc(C)cs1)c1ccc([N+](=O)[O-])cc1` [Compound S2c, (E)-4-Methyl-2-(2-(1-(4-nitrophenyl)ethylidene)hydrazineyl)thiazole Hydrochloride] yielded a viability at 48 h, 10 µM in data set [1] (setting [3]) of 99.2%. Moreover, at recombinant Cz (cruzain), the inhibition at 10 µM was 96.7%.
With `O=C(Cn1ccnc1[N+](=O)[O-])NCc1ccccc1` [BZ, Benznidazole, reference compound], the inhibition at 40 µM with T. cruzi CAI/72 strain (40 µM (BZ), C2C12 infected cells, read-out: Anti-Tc CAI/72 activity (%)) came to 81.7%. The EC50 in the data set with T. cruzi CAI/72 strain (intracellular amastigotes in C2C12 cells, 48 h, read-out: EC50 Tc CAI/72) worked out at 5.79 ± 1.2 µM. Moreover, in data set [1] (setting [3]), the viability at 48 h, 10 µM is greater than 100% and the CC50 at 48 h was greater than 10 µM.
On to `COc1ccc(/C(C)=N/NC(N)=[Se])c(OC)c1` [Se1k, (E,Z)-2-(1-(2,4-Dimethoxyphenyl)ethylidene)hydrazine-1-carboselenoamide], for which the viability at 48 h, 10 µM in data set [1] turned out to be 43.7%. Also, the inhibition at 10 µM at recombinant Cz (cruzain) was 92.5%.
As for `C/C(=N\Nc1nc(C)cs1)c1ccc(C(F)(F)F)cc1` [Compound S2d, (E)-4-Methyl-2-(2-(1-(4-(trifluoromethyl)phenyl)ethylidene)hydrazineyl)thiazole Hydrochloride], the viability at 48 h, 10 µM in data set [1] (setting [3]) is greater than 100%. Besides, the inhibition at 10 µM at recombinant Cz (cruzain) is 41.6%.
On to `COc1ccc(/C(C)=N/Nc2nc(C)c[se]2)c(OC)c1` [Se2k, (E,Z)-2-(2-(1-(2,4-Dimethoxyphenyl)ethylidene)hydrazineyl)-4-methyl-1,3-selenazole Hydrochloride], for which the inhibition at 10 µM with T. cruzi CAI/72 strain (setting [4]) is 38.1%. This compound also came in with a viability at 48 h, 10 µM in data set [1] greater than 100%.
With `C/C(=N\NC(N)=[Se])c1ccc(F)c(F)c1` [Se1j, (E)-2-(1-(3,4-Difluorophenyl)ethylidene)hydrazine-1-carboselenoamide], in data set [1], the viability at 48 h, 10 µM came out at 27.7%. Besides, on recombinant Cz (cruzain), the inhibition at 10 µM amounted to 102%.
